For experiment [1], the system named is winter wheat (TRZAW). In words: Test J preemergence mixtures of Compound 2 with crop safeners. It is filed as in vivo, Triticum aestivum. On the set-up: key to TRZAW Obsd. (observed effect): observed % herbicidal effect. The note with it: Test J, alone. The text has this: (§1) Seeds of test plants consisting of winter wheat (TRZAW, Triticum aestivum) and corn (ZEAMD, Zea mays cv. ‘Pioneer 33G26’) were planted into a blend of loam soil and sand and treated preemergence with a directed soil spray using test chemicals formulated in a non-phytotoxic solvent mixture that included a surfactant. […] Balanced fertilizer was applied through the watering system. Treatments consisted of Compound 2 and the above mentioned safeners alone and in combination using a spray volume of 457 L/ha. Each treatment was replicated four times. […] A dash (-) response means no test result. Colby's Equation was used to determine the herbicidal effects expected from the mixtures. Colby's Equation (Colby, S. […] wherein • Pa+b is the percentage effect of the mixture expected from additive contribution of the individual components, • Pa is the observed percentage effect of the first active ingredient at the same use rate as in the mixture, and Pb is the observed percentage effect of the second active ingredient at the same use rate as in the mixture.

The test system of experiment [2] is corn (ZEAMD). Described as above. It is filed as in vivo, Zea mays cv. ‘Pioneer 33G26’. The arrangement: key to ZEAMD Obsd. (observed effect): observed % herbicidal effect. The note with it: Test J, alone.
Description: as §1

For experiment [3], the system named is winter wheat (TRZAW). In words: Test H preemergence mixtures of compound 2 with crop safeners. The format is in vivo, Triticum aestivum. On the set-up: key to TRZAW Obsd. (observed effect): observed % effect, visually evaluated vs controls. The note with it: Test H, alone. The text has this: (§2) Seeds of test plants consisting of winter wheat (TRZAW, Triticum aestivum), corn (ZEAMD, Zea mays cv. ‘Pioneer 33G26’), giant foxtail (SETFA, Setaria faberi), and Italian ryegrass (LOLMU, Lolium multiflorum) were planted into a blend of loam soil and sand and treated preemergence with a directed soil spray using test chemicals formulated in a non-phytotoxic solvent mixture that included a surfactant. Seeds of small-seeded species were planted about 1 cm deep; larger seeds were planted about 2.5 cm deep. […] Balanced fertilizer was applied through the watering system. Treatments consisted of Compound 2 and the above mentioned safeners alone and in combination using a spray volume of 457 L/ha. Each treatment was replicated four times. Treated plants and controls were maintained in a greenhouse for 14 to 21 days, after which time all species were compared to controls and visually evaluated. […] A dash (-) response means no test result. Colby's Equation was used to determine the herbicidal effects expected from the mixtures. Colby's Equation (Colby, S. […] wherein • Pa+b is the percentage effect of the mixture expected from additive contribution of the individual components, • Pa is the observed percentage effect of the first active ingredient at the same use rate as in the mixture, and • Pb is the observed percentage effect of the second active ingredient at the same use rate as in the mixture.

Experiment [4] concerns corn (ZEAMD). Described as above. It is filed as in vivo, Zea mays cv. ‘Pioneer 33G26’. On the set-up: key to ZEAMD Obsd. (observed effect): observed % effect, visually evaluated vs controls. As to conditions: Test H, alone.
Description: as §2

Experiment [5] deals with Italian ryegrass (LOLMU). The experiment is described as above. It is filed as in vivo, Lolium multiflorum. On the set-up: key to LOLMU Obsd. (observed effect): observed % effect, visually evaluated vs controls. The note with it: Test H, alone.
Description: as §2

The subject of experiment [6] is giant foxtail (SETFA). The description is as above. It is filed as in vivo, Setaria faberi. On the set-up: key to SETFA Obsd. (observed effect): observed % effect, visually evaluated vs controls. The note with it: Test H, alone.
Description: as §2

The subject of experiment [7] is giant foxtail. Put plainly: Test A pre-/postemergence greenhouse test. As to conditions: for Plant response rating, Foxtail, Giant: 0 to 100 scale where 0 is no effect and 100 is complete control; for Foxtail, Giant plant response rating: 0 to 100 scale. It is filed as in vivo, Setaria faberi. An outline of the steps: (§3)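 Pots of loam–sand soil sown with the test species are sprayed preemergence on the soil surface; emerged seedlings (1–2 leaves, 2–10 cm) are sprayed postemergence at the same time. The vehicle is a non-phytotoxic solvent mixture with surfactant. Injury is scored visually after ~10 d in greenhouse.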

Experiment [8] concerns duck salad. Put plainly: Test C flooded paddy test. It is filed as in vivo, Heteranthera limosa. The note with it: Flood. Put shortly:
(§4)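 Pots were flooded to 3 cm above the soil surface at treatment, compound applied directly to the paddy water, and that depth held throughout. Plants were kept in a greenhouse for 13 to 15 days, then visually rated against untreated controls.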

Experiment [9] concerns corn. In words: Test A pre-/postemergence greenhouse test. The format is in vivo, Zea mays. The note with it: for Plant response rating, Corn: 0 to 100 scale where 0 is no effect and 100 is complete control; for Corn plant response rating: 0 to 100 scale. Put shortly: as §3
For experiment [10], the system named is redroot pigweed. In words: Test A pre-/postemergence greenhouse test. It is filed as in vivo, Amaranthus retroflexus. As to conditions: for Plant response rating, Pigweed: 0 to 100 scale where 0 is no effect and 100 is complete control; for Pigweed plant response rating: 0 to 100 scale. An outline of the steps:
as §3

Experiment [11] concerns wheat. Put plainly: Test A pre-/postemergence greenhouse test. The format is in vivo, Triticum aestivum. As to conditions: for Wheat plant response rating: 0 to 100 scale. An outline of the steps:
as §3

Experiment [12] concerns barnyardgrass. Put plainly: Test A pre-/postemergence greenhouse test. The format is in vivo, Echinochloa crus-galli. The note with it: for Plant response rating, Barnyardgrass: 0 to 100 scale where 0 is no effect and 100 is complete control; for Barnyardgrass plant response rating: 0 to 100 scale. An outline of the steps:
as §3

For experiment [13], the system named is barnyardgrass. Put plainly: Test C flooded paddy test. It is filed as in vivo, Echinochloa crus-galli. As to conditions: Flood. An outline of the steps: as §4
For experiment [14], the system named is crabgrass. Put plainly: Test A pre-/postemergence greenhouse test. It is filed as in vivo, Digitaria sanguinalis. The note with it: for Plant response rating, Crabgrass, Large: 0 to 100 scale where 0 is no effect and 100 is complete control; for Crabgrass, Large plant response rating: 0 to 100 scale. Put shortly:
as §3

For experiment [15], the system named is umbrella sedge. Put plainly: Test C flooded paddy test. It is filed as in vivo, Cyperus difformis. The note with it: Flood. An outline of the steps: as §4
For experiment [16], the system named is velvetleaf. Put plainly: Test A pre-/postemergence greenhouse test. The format is in vivo, Abutilon theophrasti. As to conditions: for Velvetleaf plant response rating: 0 to 100 scale. An outline of the steps: as §3
The test system of experiment [17] is morningglory. In words: Test A pre-/postemergence greenhouse test. It is filed as in vivo, Ipomoea spp. The note with it: for Plant response rating, Morningglory: 0 to 100 scale where 0 is no effect and 100 is complete control. An outline of the steps:
as §3

Experiment [18] deals with rice. Put plainly: Test C flooded paddy test. As to conditions: Flood. It is filed as in vivo, Oryza sativa. Put shortly:
as §4

Where [19] appears, read: Postemergence, 500 g ai/ha, 0 is no effect, 100 is complete control.
Where [20] appears, read: Preemergence, 125 g ai/ha, 0 no effect, 100 complete control.
[21] abbreviates: 62 g ai/ha, scale 0 to 100 (0 no effect, 100 complete control).
Setting [22] is: 250 g ai/ha, scale 0 to 100, 0 no effect, 100 complete control, 13 to 15 days.
[23] abbreviates: Postemergence, 125 g ai/ha, 0 to 100 scale where 0 is no effect and 100 is complete control.
Setting [24] is: Preemergence, 500 g ai/ha, 0 no effect, 100 complete control.

For `CC(C)(C)c1ccc(C(=O)O)cc1` [4-t-butyl benzoic acid], the “TRZAW Obsd. (observed effect)” value in experiment [1] (8 g a.i./ha), in experiment [1] (31 g a.i./ha), in [1] (125 g a.i./ha) and in [1] (500 g a.i./ha) was 0 throughout. Moreover, the “ZEAMD Obsd. (observed effect)” value in [2] (8 g a.i./ha), in [2] (31 g a.i./ha), in experiment [2] (125 g a.i./ha) and in [2] (500 g a.i./ha) was 0 in each case.
As to `O=C1OC(=O)c2cccc3cccc1c23` [naphthalic anhydride, 1,8-naphthalic anhydride], the results for the “TRZAW Obsd. (observed effect)” value in experiment [3] (8 g a.i./ha), in [3] (16 g a.i./ha) and in experiment [3] (31 g a.i./ha) were 3, 0 and 0, respectively. In addition, the “ZEAMD Obsd. (observed effect)” value in experiment [4] (8 g a.i./ha), in experiment [4] (16 g a.i./ha) and in experiment [4] (31 g a.i./ha) was 0 in each case. Besides, the “LOLMU Obsd. (observed effect)” value in [5] (8 g a.i./ha) is recorded as 13; in experiment [5] (16 g a.i./ha) it was 0; in experiment [5] (31 g a.i./ha) it was 0. Further, the “SETFA Obsd. (observed effect)” value in [6] (8 g a.i./ha), in [6] (16 g a.i./ha) and in experiment [6] (31 g a.i./ha) was 0 throughout.
On to `CCOC(=O)C1=NN(c2ccc(Cl)cc2Cl)C(C)(C(=O)OCC)C1` (centres unmarked) [mefenpyr-diethyl], for which the “TRZAW Obsd. (observed effect)” value in experiment [3] (8 g a.i./ha), in [3] (16 g a.i./ha) and in experiment [3] (31 g a.i./ha) was 0 throughout. Besides, the “ZEAMD Obsd. (observed effect)” value in experiment [4] (8 g a.i./ha), in [4] (16 g a.i./ha) and in experiment [4] (31 g a.i./ha) was 0 each time. Moreover, the “LOLMU Obsd. (observed effect)” value came out at 3 in experiment [5] (8 g a.i./ha), 0 in experiment [5] (16 g a.i./ha) and 0 in experiment [5] (31 g a.i./ha). Also, the “SETFA Obsd. (observed effect)” value in experiment [6] (8 g a.i./ha) is 0; in experiment [6] (16 g a.i./ha), 0; in [6] (31 g a.i./ha) it was 1.
As for `Cn1nc(C(F)(F)F)c(C[S+]([O-])c2ccc(Cl)c[n+]2[O-])c1OCC(F)(F)C(F)(F)F` (centres unmarked) [Compound 89], the “Plant response rating, Foxtail, Giant” value in [7] (Postemergence, 125 g ai/ha) is recorded as 80; in experiment [7] (Preemergence, 500 g ai/ha) it was 100. Further, the “Foxtail, Giant plant response rating” value in [7] (setting [19]) turned out to be 90; in experiment [7] (setting [20]), 80. Moreover, the “Plant response rating, Ducksalad” value in experiment [8] (setting [21]) turned out to be 40; in experiment [8] (setting [22]) it was 100. For the same molecule, the “Plant response rating, Corn” value amounted to 50 in experiment [9] (Postemergence, 125 g ai/ha) and 90 in experiment [9] (Preemergence, 500 g ai/ha). Also, the “Corn plant response rating” value in experiment [9] (setting [19]) came to 80; in [9] (setting [20]) it was 30. The “Plant response rating, Pigweed” value in experiment [10] (Postemergence, 125 g ai/ha) worked out at 50; in experiment [10] (Preemergence, 500 g ai/ha), 100. Besides, the entries for the “Pigweed plant response rating” value in [10] (setting [19]) and in experiment [10] (setting [20]) were 100 and 80, respectively. In addition, the “Plant response rating, Wheat” value in [11] (setting [23]) amounted to 60. For the same molecule, the “Wheat plant response rating” value in [11] (setting [19]) came to 70; in experiment [11] (setting [20]) it was 30; in experiment [11] (setting [24]), 90. Also, the “Plant response rating, Barnyardgrass” value in experiment [12] (Postemergence, 125 g ai/ha) is reported as 70; in [12] (Preemergence, 500 g ai/ha) it was 100; in [13] (setting [21]), 0; in [13] (setting [22]) it was 90. For the same molecule, the entries for the “Barnyardgrass plant response rating” value in experiment [12] (setting [19]) and in experiment [12] (setting [20]) were 90 and 40, respectively. Also, the “Plant response rating, Crabgrass, Large” value turned out to be 50 in [14] (Postemergence, 125 g ai/ha) and 90 in experiment [14] (Preemergence, 500 g ai/ha). Further, the “Crabgrass, Large plant response rating” value in [14] (setting [19]) and in [14] (setting [20]) was 90 in each case. For the same molecule, the “Plant response rating, Sedge, Umbrella” value in [15] (setting [21]) was 0; in experiment [15] (setting [22]), 100. Besides, the “Plant response rating, Velvetleaf” value in [16] (setting [23]) was found to be 30. Moreover, the “Velvetleaf plant response rating” value is recorded as 80 in [16] (setting [19]), 10 in [16] (setting [20]) and 100 in experiment [16] (setting [24]). Further, the “Plant response rating, Morningglory” value was 40 in [17] (Postemergence, 125 g ai/ha) and 90 in experiment [17] (Preemergence, 500 g ai/ha). Moreover, the “Morningglory plant response rating” value in experiment [17] (Postemergence, 500 g ai/ha, 0 to 100 scale, 0 is no effect, 100 is complete control) was determined as 90. The results for the “Plant response rating, Rice” value in experiment [18] (setting [21]) and in experiment [18] (setting [22]) were 0 and 60, respectively.
